From US10086028B2, “Method for treating vascular inflammation, improving skin beauty and improving male sexual function using ginseng berry” (AMOREPACIFIC CORPORATION, priority 2007, dated 2018)

Columns and labels:
[1] = tested on: matrix metalloproteinase I (MMP-1); assay: Inhibition of UVB-induced MMP-1 expression in human fibroblasts (ELISA); format: cell-based; details: UVB 40 mJ/cm^2, 2nd day, relative to UV control; 10 ng/mL
Procedure: Human fibroblasts were cultured on a 12-well plate incubator to a concentration of 10^5 cells/well. Then, after irradiating UVB at 40 mJ/cm^2, the medium was replaced by one including the ginseng berry extract of Example 1 (1 μg/mL and 10 μg/mL), the ginseng berry saponin concentrate of Example 2 (10 μg/mL), the ginseng root extract of Comparative Example 1 (10 μg/mL) or ginsenosides Rg1, Rg2, Rh1 or Re (10 μg/mL). 10 ng/mL TGF-β was used as a positive control substance. On the 2nd day of culturing, the cells were harvested and the quantity of produced matrix metalloproteinase I (MMP-1) was analyzed using ELISA. The result was calculated as a relative value with respect to the control group, which was irradiated with UV without treating with a test substance.

[2] = tested on: type I procollagen; assay: Type I procollagen assay in human fibroblasts (ELISA); format: cell-based; details: 3rd day, 10 ng/mL
Procedure: Human fibroblasts were cultured on a 12-well plate incubator to a concentration of 10^5 cells/well. Then, the medium was replaced by one including the ginseng berry extract of Example 1 (1 μg/mL and 10 μg/mL), the ginseng berry saponin concentrate of Example 2 (10 μg/mL), the ginseng root extract of Comparative Example 1 (10 μg/mL) or ginsenosides Rg1, Rg2, Rh1 or Re (10 μg/mL). 10 ng/mL transforming growth factor β (TGF-β) was used as a positive control substance.
On the 3rd day of culturing, the cells were harvested and the quantity of produced type I procollagen was analyzed using ELISA. The result was calculated as a relative value with respect to the negative control group, which was not treated with a test substance.

[3] = tested on: human HaCaT keratinocytes; assay: Antioxidative effect: removal of UV-generated ROS in HaCaT keratinocytes; format: cell-based; details: ROS generated by UV in HaCaT; sample 10 μg/mL (Trolox given as (10))
Description: Antioxidative effect of the ginseng berry extract was investigated by comparing the ability of removing reactive oxygen species (ROS) generated in human HaCaT keratinocytes by ultraviolet (UV) radiation.

[4] = tested on: endothelial cells (HUVEC); assay: Increase of NO generation in endothelial cells (Test Example 12); format: cell-based
Procedure: Endothelial cells were adhered on a gelatin-coated 24-well plate, with a density of 2.5×10^4 cells/well. The cells were cultured for 12 hours using a growth medium. The endothelial cells were pre-treated for 12 hours, using the ginseng berry extract, the ginseng berry saponin concentrate or the ginseng root extract (Examples 1-2 and Comparative Example 1). Then, they, including a non-treated group, were treated with 10 μmol/L DAF-FM diacetate (Molecular Probe, Oreg.) at 37° C. for 30 minutes in an FBS-free M199 medium. Subsequently, the endothelial cells were washed 3 times with an FBS-free M199 medium, put in a parallel plate flow chamber, and stimulated with light isolated from a mercury lamp. Excitation wavelength was 488 nm. Fluorescence of 515 nm is emitted when DAF binds with NO.
Increase of generation of NO, which is known as an important signal transduction substance related with penile erection, in endothelial cells was observed after treating with the ginseng berry extract. Experiment was carried out in a manner substantially the same as that of Test Example 2, but L-arginine was treated together with the ginseng root extract of Comparative Example 1 and the ginseng berry extract of Example 1. […]

[5] = tested on: melanocytes (MeI-Ab cells); assay: Inhibition of melanin generation in mouse melanocytes; format: cell-based, C57BL/6 mouse; details: added for 3 consecutive days; sample 10 μg/mL
Procedure: Inhibition of melanin generation in mouse melanocytes was evaluated in order to confirm the effect of the ginseng berry extract of Example 1 of inhibiting melanin generation.
First, melanocytes (MeI-Ab cells) derived from C57BL/6 mouse [Dooley, T. P. et al, Skin Pharmacol., 7, pp. 188-200] were cultured in Dulbecco's modified Eagle's medium (DMEM) containing 10% FBS, 100 nM 2-O-tetradecanoylphorbol-13-acetate and 1 nM cholera toxin under the condition of 37° C., 5% CO2. The cultured MeI-Ab cells were separated using 0.25% trypsin-EDTA, and cultured on a 24-well plate to a concentration of 10^5 cells/well. Starting from day 2, the ginseng berry extract of Example 1 (1 μg/mL, 10 μg/mL and 100 μg/mL), the ginseng berry saponin concentrate of Example 2 (10 μg/mL), the ginseng root extract of Comparative Example 1 (10 μg/mL) or ginsenosides Rg1, Rg2, Rh1 or Re (10 μg/mL) was added for 3 consecutive days. Hydroquinone (10 μg/mL) was used as a positive control substance. Then, after removing the medium and washing with PBS, the cells were dissolved with 1 N sodium hydroxide. Absorbance was measured at 400 nm, and melanin generation inhibition ratio was calculated by Equation 3.

transforming growth factor β [TGF-β]
MMP-1 expression (%) [1]: 65% | Procollagen activity relative to negative control (%) [2]: 145%

Cc1c(C)c2c(c(C)c1O)CCC(C)(C(=O)O)O2 (stereo not drawn) [Trolox]
Antioxidative effect (%) [3]: 33%

N=C(N)NCCC[C@H](N)C(=O)O [L-Arginine]
increased NO generation with respect to the negative control group ([4]; 250 μM): about 2.7 times | increased NO generation with respect to the negative control group ([4]; 500 μM): ~5.5 times

Oc1ccc(O)cc1 [Hydroquinone]
Melanin generation inhibition ratio (%) [5]: 39%
